Laboratory results: ChEMBL document CHEMBL5375972, “Discovery of Novel 2,3-Dihydro-1H-indene-5-sulfonamide NLRP3 Inflammasome Inhibitors Targeting Colon as a Potential Therapy for Colitis” (J Med Chem, 2023)
Calls of active or inactive are those of the source.

Columns and labels:
[1] = Cytotoxicity against mouse J774.A1 cells incubated for 24 hrs by resazurin reagent based assay; format: toxicity, cell-based
[2] = molecular target: T1, Interferon-inducible protein AIM2 (Mus musculus) (UniProt Q91VJ1); assay: Inhibition of AIM2 inflammasome in mouse J774.A1 cells assessed as inhibition of IL-1 beta secretion at 10 uM pretreated with LPS and compound for 1 hr and later stimulated with poly (dA:dT) for 8 hrs by ELISA; format: cell-based; settings: time 9.0 hrs
T1 sequence (whole entry): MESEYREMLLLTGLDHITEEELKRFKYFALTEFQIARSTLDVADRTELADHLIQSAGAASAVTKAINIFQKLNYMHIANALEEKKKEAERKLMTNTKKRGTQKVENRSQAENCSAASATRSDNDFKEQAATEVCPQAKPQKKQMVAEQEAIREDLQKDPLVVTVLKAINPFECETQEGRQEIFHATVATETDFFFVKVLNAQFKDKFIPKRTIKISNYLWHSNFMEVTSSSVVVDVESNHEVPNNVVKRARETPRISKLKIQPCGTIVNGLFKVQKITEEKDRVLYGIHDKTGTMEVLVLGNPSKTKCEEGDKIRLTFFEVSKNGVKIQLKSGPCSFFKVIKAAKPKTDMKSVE

J774.A1 = assay: Inhibition of NF-kappaB pathway in mouse J774.A1 cells assessed as inhibition of LPS-induced TNF-alpha secretion at 0.1 to 30 uM pretreated for 1hr followed by LPS addition for 6 hrs by ELISA; format: cell-based; settings: dose 0.1-30 µM, time 7.0 hrs
[3] = molecular target: T2, NACHT, LRR and PYD domains-containing protein 3 (Homo sapiens, UniProt Q96P20); assay: Inhibition of NLRP3 inflammasome in human U-937 cells assessed as downregulation of LPS/ATP-induced caspase-1 p20 expression at 3 to 30 uM primed with LPS for 4.5 hrs followed by compound addition for 2.5 hrs and stimulated with […] for 13 hrs by Western blotting analysis; format: cell-based; settings: dose 3-30 µM, time 15.5 hrs
[4] = molecular target: T2, NACHT, LRR and PYD domains-containing protein 3; assay: Binding affinity to human NLRP3 assessed as equilibrium dissociation constant by surface plasmon resonance assay
[5] = AUC (0-infinity) in Sprague-Dawley rat at 1 mg/kg,iv measured after 24 hrs by HPLC-MS/MS analysis; format: ADME, organism-based; design: time 24 hrs, dose 1 mg/kg, route iv; settings: in vivo
[6] = Cmax in Sprague-Dawley rat at 1 mg/kg,iv measured after 24 hrs by HPLC-MS/MS analysis; format: ADME, organism-based; design: dose 1 mg/kg, time 24 hrs, route iv; settings: in vivo
[7] = Drug distribution in Sprague-Dawley rat heart at 1 mg/kg,iv measured for 0.5 to 2 hrs by HPLC-MS/MS analysis; format: ADME, organism-based; settings: in vivo, time 0.5-2 hrs
[8] = Drug distribution in Sprague-Dawley rat spleen at 1 mg/kg,iv measured for 0.5 to 2 hrs by HPLC-MS/MS analysis; format: ADME, organism-based; settings: in vivo, time 0.5-2 hrs
[9] = Drug distribution in Sprague-Dawley rat kidney at 1 mg/kg,iv measured for 0.5 to 2 hrs by HPLC-MS/MS analysis; format: ADME, organism-based; settings: in vivo, time 0.5-2 hrs
Mus musculus [10] = assay: Anti-inflammatory activity in DSS-induced ulcerative colitis C57BL/6 mouse model assessed as increase in body weight at 10 mg/kg,ip administrated for 9 days; format: functional, organism-based; settings: time 9.0 day
Mus musculus [11] = assay: Anti-inflammatory activity in DSS-induced ulcerative colitis C57BL/6 mouse model assessed as reduction in disease activity index (DAI) score at 10 mg/kg,ip administrated for 9 days; format: functional, organism-based; settings: time 9.0 day
Mus musculus [12] = assay: Anti-inflammatory activity in DSS-induced ulcerative colitis C57BL/6 mouse model assessed as increase in colon length at 10 mg/kg,ip administrated for 9 days; format: functional, organism-based; settings: time 9.0 day
Mus musculus [13] = assay: Anti-inflammatory activity in DSS-induced ulcerative colitis C57BL/6 mouse model assessed as reduction in crypt necrosis in colon at 10 mg/kg,ip administrated for 9 days by Hematoxylin-eosin staining based microscopic analysis; format: functional, organism-based; settings: time 9.0 day
Mus musculus [14] = assay: Anti-inflammatory activity in DSS-induced ulcerative colitis C57BL/6 mouse model assessed as decrease in IL-1beta expression in colon at 10 mg/kg,ip administrated for 9 days by immunohistochemistry analysis; format: functional, organism-based; settings: time 9.0 day
Mus musculus [15] = assay: Anti-inflammatory activity in DSS-induced ulcerative colitis C57BL/6 mouse model assessed as decrease in caspase-1 expression in colon at 10 mg/kg,ip administrated for 9 days by immunohistochemistry analysis; format: functional, organism-based; settings: time 9.0 day
Mus musculus [16] = assay: Anti-inflammatory activity in DSS-induced ulcerative colitis C57BL/6 mouse model assessed as decrease in ASC expression in colon at 10 mg/kg,ip administrated for 9 days by immunohistochemistry analysis; format: functional, organism-based; settings: time 9.0 day
Mus musculus [17] = assay: Anti-inflammatory activity in DSS-induced ulcerative colitis C57BL/6 mouse model assessed as decrease in IL-1beta p17 protein expression in colon at 10 mg/kg,ip administrated for 9 days by Western blotting analysis; format: functional, organism-based; settings: time 9.0 day
Mus musculus [18] = assay: Anti-inflammatory activity in DSS-induced ulcerative colitis C57BL/6 mouse model assessed as decrease in caspase-1 p20 protein expression in colon at 10 mg/kg,ip administrated for 9 days by Western blotting analysis; format: functional, organism-based; settings: time 9.0 day
[19] = Acute toxicity in Kunming mouse model assessed as change in body weight at 1000 mg/kg,IG administration for 7 days; format: organism-based; settings: in vivo, po, 168 h, time 7 day
[20] = Acute toxicity in Kunming mouse model assessed as behavioral abnormalities at 2000 mg/kg,IG administration for 7 days; format: organism-based; settings: in vivo, po, 168 h, time 7 day
[21] = Acute toxicity in Kunming mouse model assessed as lethargy at 2000 mg/kg,IG administration for 7 days; format: organism-based; settings: in vivo, po, 168 h, time 7 day
[22] = Acute toxicity in Kunming mouse model assessed as clonic convulsion at 2000 mg/kg,IG administration for 7 days; format: organism-based; settings: in vivo, po, 168 h, time 7 day
[23] = Acute toxicity in Kunming mouse model assessed as anorexia at 1000 mg/kg,IG administration for 7 days; format: organism-based; settings: in vivo, po, 168 h, time 7 day
[24] = Subacute toxicity in C57BL/6 mouse assessed as change in heart weight at 100 mg/kg,ip administrated for 14 days; format: organism-based; settings: in vivo, 336 h, time 14 day
[25] = Subacute toxicity in C57BL/6 mouse assessed as change in kidney weight at 10 mg/kg,ip administrated for 14 days; format: organism-based; settings: in vivo, 336 h, time 14 day
[26] = Subacute toxicity in C57BL/6 mouse assessed as change in colon weight at 10 mg/kg,ip administrated for 14 days; format: organism-based; settings: in vivo, 336 h, time 14 day
[27] = Subacute toxicity in C57BL/6 mouse assessed as liver histological changes at 10 mg/kg,ip administrated for 14 days; format: organism-based; settings: in vivo, 336 h, time 14 day
[28] = Subacute toxicity in C57BL/6 mouse assessed as spleen histological changes at 10 mg/kg,ip administrated for 14 days; format: organism-based; settings: in vivo, 336 h, time 14 day
[29] = Subacute toxicity in C57BL/6 mouse assessed as spleen histological changes at 100 mg/kg,ip administrated for 14 days; format: organism-based; settings: in vivo, 336 h, time 14 day
[30] = Subacute toxicity in C57BL/6 mouse assessed as kidney histological changes at 10 mg/kg,ip administrated for 14 days; format: organism-based; settings: in vivo, 336 h, time 14 day
[31] = Subacute toxicity in C57BL/6 mouse assessed as colon histological changes at 10 mg/kg,ip administrated for 14 days; format: organism-based; settings: in vivo, 336 h, time 14 day
[32] = Subacute toxicity in C57BL/6 mouse assessed as colon histological changes at 100 mg/kg,ip administrated for 14 days; format: organism-based; settings: in vivo, 336 h, time 14 day

T2 sequence (Q96P20 whole entry, the tested form may be a part): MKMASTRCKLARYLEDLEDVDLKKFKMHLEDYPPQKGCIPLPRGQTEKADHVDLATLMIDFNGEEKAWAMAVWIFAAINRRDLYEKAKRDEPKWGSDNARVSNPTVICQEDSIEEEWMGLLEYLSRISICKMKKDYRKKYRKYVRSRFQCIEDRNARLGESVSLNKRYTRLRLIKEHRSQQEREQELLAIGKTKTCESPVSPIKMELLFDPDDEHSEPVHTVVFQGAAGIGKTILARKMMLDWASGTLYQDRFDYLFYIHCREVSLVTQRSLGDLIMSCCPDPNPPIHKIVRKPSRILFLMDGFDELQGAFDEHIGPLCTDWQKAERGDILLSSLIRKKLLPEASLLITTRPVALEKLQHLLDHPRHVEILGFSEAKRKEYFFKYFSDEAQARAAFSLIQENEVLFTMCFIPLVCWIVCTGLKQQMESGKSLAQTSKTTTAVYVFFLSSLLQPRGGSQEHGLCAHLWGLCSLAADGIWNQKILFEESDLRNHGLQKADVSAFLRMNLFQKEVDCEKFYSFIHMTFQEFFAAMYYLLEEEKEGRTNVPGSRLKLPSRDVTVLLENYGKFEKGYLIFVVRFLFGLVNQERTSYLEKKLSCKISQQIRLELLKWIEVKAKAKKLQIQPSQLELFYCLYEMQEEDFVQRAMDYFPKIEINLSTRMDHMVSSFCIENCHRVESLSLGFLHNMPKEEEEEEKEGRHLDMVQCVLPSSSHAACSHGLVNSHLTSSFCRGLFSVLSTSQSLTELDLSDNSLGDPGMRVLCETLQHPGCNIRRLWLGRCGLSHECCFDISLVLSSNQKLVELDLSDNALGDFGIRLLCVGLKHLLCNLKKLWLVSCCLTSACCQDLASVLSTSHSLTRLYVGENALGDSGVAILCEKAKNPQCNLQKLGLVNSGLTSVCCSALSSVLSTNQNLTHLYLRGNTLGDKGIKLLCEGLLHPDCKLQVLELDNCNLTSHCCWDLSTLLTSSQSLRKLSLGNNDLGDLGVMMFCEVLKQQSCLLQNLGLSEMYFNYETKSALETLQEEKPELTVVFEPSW

CCCNS(=O)(=O)c1ccc2c(c1)CC(N(Cc1cc(Cl)ccc1OCCOC)C(=O)c1cc3ccccc3o1)C2 (racemic)
active: inhibition [3] | Activity (Mus musculus [10]) | Activity (Mus musculus [11]) | Activity (Mus musculus [12]) | Activity (Mus musculus [13]) | Activity (Mus musculus [14]) | Activity (Mus musculus [15]) | Activity (Mus musculus [16]) | Activity (Mus musculus [17]) | Activity (Mus musculus [18])
inactive: inhibition [2] | inhibition (J774.A1)
Non-Toxic: Activity [19] | Activity [20] | Activity [21] | Activity [22] | Activity [23] | Activity [24] | Activity [25] | Activity [26] | Activity [27] | Activity [28] | Activity [29] | Activity [30] | Activity [31] | Activity [32]
> 30000 nM: CC50 at 24 h [1]
Active: Drug uptake [7] | Drug uptake [8] | Drug uptake [9]
213 ng·h/mL: AUC(0-inf) [5]
219 ng/mL: Cmax [6]
103 nM: Kd [4]
